Measured values taken from patent publication US8710045B2, “Agents for preventing and treating disorders involving modulation of the ryanodine receptors” (The Trustees of Columbia University in the City of New York, priority 2004, dated 2014).
Where “and” joins values, the source holds several entries; their conditions need not be identical. Equal entries are not always repeated. Where two headings read alike, the source gives them in different places.

Legend:
PKA-phosphorylated RyR2 = biological target: T1, PKA-phosphorylated RyR2 (Homo sapiens, UniProt Q92736); test: FKBP12.6 rebinding assay: FKBP12.6 binding to PKA-phosphorylated RyR2 in cardiac SR
T1 construct: from tissue
Procedure: Samples are centrifuged at 95,000 g for 10 min and the pellets are washed three times in 0.2 ml imidazole buffer. The final pellets are pooled and resuspended in imidazole buffer (final concentration≈10 μg/μl). […] Samples then are centrifuged at 100,000 g for 10 minutes and pellets washed 3 times with imidizol buffer. […] Immunoblots are developed using an anti-FKBP antibody (1:3,000 dilution). […] The intracellular solution contains (in mM): CsCl, 60; CaCl2, 1; EGTA, 11; MgCl2, 1; K2ATP, 5; HEPES, 10; aspartic acid, 50; pH 7.4 (CsOH). Under these conditions, it is expected that the measured current was carried by Ba^2+ primarily through L-type calcium channels which is referred to as ICa,L. Drugs are applied by a local solution changer and reach the cell membrane within 1 s.
The FKBP12.6 rebinding assay described above is used to determine the amount of FKBP12.6 binding to PKA-phosphorylated RyR2 at various concentrations (0.5-1000 nM) of the compounds shown. EC50 values are calculated using Michaelis-Menten curve fitting.
The EC50 values are calculated using Michaelis-Menten curve fitting.

hERG = hERG (Homo sapiens, UniProt Q12809); test: hERG current, manual whole-cell patch clamp in hERG-transfected HEK 293 cells (Example 5); assay type: cell-based; set-up: expressed in transfected cells; host or cells: HEK 293; conditions: human, HEK 293 cells stably transfected with hERG cDNA
Procedure: (§1) Electrophysiological recordings (using the whole-cell patch clamp method) were performed at room temperature (18° C.-24° C.). Each cell acted as its own control. The effect of ARM0036 was evaluated at two concentrations: 10 and 100 μM. Each concentration was tested in at least three cells (n≧3). 90 nM Cisapride (commercially available from TOCRIS Bioscience) was used as a positive control for hERG blockade. For recording, cells were transferred to the recording chamber and superfused with vehicle control solution. The patch pipette solution for whole cell recording contained 130 mM potassium aspartate, 5 mM MgCl2, 5 mM EGTA, 4 mM ATP and 10 mM HEPES. The pH was adjusted to 7.2 with KOH. The pipette solution was prepared in batches, aliquoted, and stored frozen. A fresh aliquot was thawed and used each day. Patch pipettes were made from glass capillary tubing using a P-97 micropipette puller (Sutter Instruments, Novato, Calif.). A commercial patch clamp amplifier was used for whole cell recordings. Before digitization, current records were low-pass filtered at one-fifth of the sampling frequency.

hERG current [1] = biological target: T2, hERG current (Homo sapiens, UniProt Q12809); test: as above; assay type: cell-based; set-up: expressed in transfected cells; host or cells: HEK 293
Procedure: as §1

hERG current [2] = biological target: T2, hERG current; test: hERG current, PatchXpress 7000A automatic parallel patch clamp in hERG-transfected HEK 293 cells (Example 6); conditions: for Individual Data (% Inhibition): single cell
Procedure: HEK293 cells were transfected with a plasmid containing the hERG cDNA and a neomycin resistance gene. Stable transfectants were selected by culturing the cells in the presence of G418. The selection pressure was maintained by continued culture in the presence of G418. […] Cells for use in electrophysiology were cultured in 35 mm dishes.
Onset and steady state block of hERG current was measured using a pulse pattern with fixed amplitudes (conditioning prepulse: +20 mV for 2 seconds; test pulse: −50 mV for 2 seconds) repeated at 10 second intervals, from a holding potential of −80 mV. Peak tail current was measured during the 2 second step to −50 mV. A steady state was maintained for at least 30 seconds before applying the test compound or the positive control. Peak tail current was monitored until a new steady state was achieved. Test compound concentrations were applied cumulatively in ascending order without washout between applications.
Data acquisition and analysis was performed using the suite of pCLAMP (Vre. 8.2) programs (Axon Instruments, Union City, Calif.). Steady state was defined by the limiting constant rate of change with time (linear time dependence). The steady state before and after application of the test or control compounds was used to calculate the percentage of current inhibited at each concentration. […] Nonlinear squares fits were solved with the Solver add-in for Excel 2000 (Microsoft, Redmond, Wash.).
Multiple compounds of the invention were tested for their effects on hERG currents. The compounds tested were: ARM036-Na, ARM047, ARM048, ARM050, ARM057, ARM064, ARM074, ARM075, ARM076, ARM077, ARM101, ARM102, ARM103, ARM104, ARM106, ARM107 and ARM26. […] Electrophysiological recordings were made using the PatchXpress 7000 A (Molecular Devices) automatic parallel patch clamp system. […] The duration of exposure to each test concentration was 5 minutes.

RyR = RyR immunoprecipitation from whole brain microsomes of exercised mice; assay type: in vivo, mouse; conditions: 21 days
Procedure: Tissue lysates were prepared by homogenizing the tissue (e.g., brain, cardiac, muscle) with Tissuemiser in 0.7 ml lysis buffer (pH 7.4, 10 mM HEPES, 1 mM EDTA, 20 mM NaF, 2 mM Na3 VO4, 320 mM sucrose, and protease inhibitors) and centrifuged for 15 min at 4,000×g at 4° C. The supernatant was then centrifuged for 15 min at 10,000×g at 4° C. For brain homogenates, the supernatant was centrifuged at 50,000×g at 4° C. for 30 minutes, and the pellet (microsomes) was resuspended in homogenization buffer which was supplemented with 0.9% NaCl. For brain tissue, the resuspended pellet was used for immunoprecipitation of RyR. For cardiac and muscle tissue homogenates, the supernatant of the 10,000×g spin was used for immunoprecipitation of the RyR. Protein concentrations were measured by Bradford protein assay. The sample was frozen at −80° C. until use.
100 μg of microsomes were brought to a volume of 500 μl with modified RIP A buffer (50 mM Tris-HCl (PH 7.4), 0.9% NaCl, 5.0 mM NaF, 1.0 mM Na3VO4, 0.5% TritonX100, and protease inhibitors). […] The sample was incubated with 40 μl of Protein A Sepharose beads and rotated for 1 hr at 4° C. […]
Ryanodine receptor (types 1 and 2) was immunoprecipitated from whole brain microsomes. Immunoprecipitates were separated by 4-20% PAGE and analyzed for total RyR, PKA phosphorylated RyR, and calstabin.

calpain = test: Calpain activity in mdx mouse muscular dystrophy model during exercise; assay type: in vivo; conditions: mdx mice, 0.125 mg/kg/h for 28 days, downhill treadmill
Procedure: After treatment, the mice were subjected to downhill (14° angel) treadmill running for 30 min at 18 m/min. Immediately after the exercise, the animals were sacrificed and the skeletal muscles were harvested.
Preparation of EDL Homogenates: EDL muscles homogenates were prepared in 0.5 ml of homogenization buffer (20 mM NaF, 10 mM Tris-maleate, pH7.2+protease inhibitors). […] sarcoplasmic reticulum (CSR) fractions were obtained by centrifuging the homogenates at 50,000×g for 30 min. Homogenates were centrifuged at 4000×g for 20 min and the supernatants were centrifuged for 20 min at 10000×g. Aliquots of the homogenates were assayed for protein concentration and stored at −80° C.
Calpain Activity Assay: Calpain activity of EDL homogenates (30 μg) were measured using a Calpain Activity Assay kit (Calbiochem). The assay utilizes a synthetic calpain substrate, suc-LLVY-AMC. AMC is released upon cleavage with calpain and is measured fluorometrically. Assays are performed with both an activation and an inhibition buffer to determine specific calpain activity in the sample.

Chain of hERG (Q12809 whole entry, the tested form may be a part): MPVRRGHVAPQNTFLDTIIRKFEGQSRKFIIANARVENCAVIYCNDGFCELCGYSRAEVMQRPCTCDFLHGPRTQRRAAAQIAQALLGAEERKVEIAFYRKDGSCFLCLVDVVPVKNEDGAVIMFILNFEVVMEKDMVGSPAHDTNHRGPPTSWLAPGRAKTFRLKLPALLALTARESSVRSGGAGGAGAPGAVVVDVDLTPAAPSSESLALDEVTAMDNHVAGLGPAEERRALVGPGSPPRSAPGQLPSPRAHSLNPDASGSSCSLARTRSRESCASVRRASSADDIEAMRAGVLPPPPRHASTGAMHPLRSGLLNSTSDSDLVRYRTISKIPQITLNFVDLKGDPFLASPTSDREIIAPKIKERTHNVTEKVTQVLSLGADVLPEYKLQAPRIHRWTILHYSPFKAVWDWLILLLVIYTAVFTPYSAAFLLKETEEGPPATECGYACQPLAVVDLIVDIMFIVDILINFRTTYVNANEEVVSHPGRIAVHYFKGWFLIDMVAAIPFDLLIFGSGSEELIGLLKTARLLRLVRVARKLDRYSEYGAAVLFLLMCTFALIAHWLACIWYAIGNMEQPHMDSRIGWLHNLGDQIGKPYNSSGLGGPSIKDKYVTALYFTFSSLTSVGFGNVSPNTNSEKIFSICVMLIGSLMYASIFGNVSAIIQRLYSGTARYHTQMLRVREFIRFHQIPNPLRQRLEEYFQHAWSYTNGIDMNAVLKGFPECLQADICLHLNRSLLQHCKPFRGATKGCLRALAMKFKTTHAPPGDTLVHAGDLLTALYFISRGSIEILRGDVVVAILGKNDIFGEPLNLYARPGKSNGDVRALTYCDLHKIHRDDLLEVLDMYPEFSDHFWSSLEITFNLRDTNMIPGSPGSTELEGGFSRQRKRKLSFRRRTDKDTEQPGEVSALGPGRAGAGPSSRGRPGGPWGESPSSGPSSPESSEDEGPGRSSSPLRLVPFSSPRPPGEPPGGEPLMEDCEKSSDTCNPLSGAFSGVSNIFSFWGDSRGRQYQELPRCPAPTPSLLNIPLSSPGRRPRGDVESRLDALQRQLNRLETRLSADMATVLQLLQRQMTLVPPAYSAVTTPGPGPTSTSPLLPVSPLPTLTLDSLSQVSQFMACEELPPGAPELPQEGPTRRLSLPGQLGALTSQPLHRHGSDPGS
T2 sequence (Q12809 whole entry): as the sequence (Q12809 whole entry, the tested form may be a part) above

COc1ccc2c(c1)CN(C(=O)C(=O)O)CCS2 [S36]
potency at increasing the binding of FKBP12.6 and RyR2 compared with JTV-519 (PKA-phosphorylated RyR2): more potent
EC50 (PKA-phosphorylated RyR2; compound 0.5-1000 nM, Michaelis-Menten curve fitting): 15 nM
plasma levels preventing exercise-induced sudden cardiac death compared with JTV-519 (FKBP12.6+/− mice; mouse, in vivo): lower plasma levels compared with JTV-519
cardiac arrhythmias and sudden cardiac death (FKBP12.6+/− mice; plasma level 0.02 μM): prevent
cardiac arrhythmias and sudden cardiac death (FKBP12.6+/− mice; plasma level 1 μM): prevent
inhibition at 10 µM (hERG; 10 μM, read-out: Mean percent inhibition of hERG current): 0.7%
inhibition at 100 µM (hERG; 100 μM, read-out: Mean percent inhibition of hERG current): 0.9%
inhibition at 100 µM (hERG; highest concentration tested (100 μM), read-out: hERG current inhibition at the highest concentration tested): < 50%
block of HERG K+ channel (IKr) (hERG current [1]): does not block
effect on hERG outward tail current (hERG current [1]; 100 μM): minimally reduced

COc1ccc2c(c1)CN(C)CCS2 [S107]
Mean % hERG Inhibition (hERG current [2]; 0.01 μM): 2.9%
Individual Data (% Inhibition) (hERG current [2]; 0.01 μM, listed as ARM107, 0.01 µM): 1.7% and 4.0%
Mean % hERG Inhibition (hERG current [2]; 0.1 μM): 4.0%
Individual Data (% Inhibition) (hERG current [2]; 0.1 μM, listed as ARM107, 0.1 µM): 3.1% and 4.8%
Mean % hERG Inhibition (hERG current [2]; 1 μM): 6.2%
Individual Data (% Inhibition) (hERG current [2]; 1 μM, listed as ARM107, 1 µM): 2.0% and 10.4%
Mean % hERG Inhibition (hERG current [2]; 10 μM): 32.1%
Individual Data (% Inhibition) (hERG current [2]; 10 μM, listed as ARM107, 10 µM): 24.2% and 39.9%
hERG current inhibition at the highest concentration tested (hERG current [2]; highest concentration tested (10 μM)): less than 50%
binding of calstabin to RyR in whole brain microsomes (RyR): restores the binding of calstabin to RyR
calpain activity (calpain): reduces calpain activity
